{"source": "patent US4012387A", "about": "“Benzo-[g]pyrido[2,1-b]quinazolinones” (Warner-Lambert Company, priority 1975, dated 1977)", "tested_on": "rat passive cutaneous anaphylaxis", "test": "rat passive cutaneous anaphylaxis test (PCA), procedure of Herzig", "assay_type": "in vivo", "description": "Mansmann, Eds., John Wiley and Son, N.Y., 1975].\nEffective dose 50% inhibition rat passive cutaneous anaphylaxis", "key": {"[1]": {"conditions": "effective dose 50% inhibition, rat PCA, intravenous, read-out: ED50 -PCA (rat) iv."}}, "note": "Read-outs that look alike come from different tables or passages of the source.", "data": [{"smiles": "O=C(O)c1ccc2nc3cc4ccccc4cc3c(=O)n2c1", "note": "[Example 1, 6-oxo-6H-benzo[g]pyrido[2,1-b]quinazoline-3-carboxylic acid]", "values": [{"measurement": "ED50", "setting": "[1]", "result": 0.015, "unit": "mg/kg"}, {"measurement": "ED50", "setting": "effective dose 50% inhibition, rat PCA, oral, read-out: ED50 -PCA (rat) po.", "result": "< 0.1", "unit": "mg/kg"}, {"measurement": "effectiveness compared with the commercial compound (Intal), i.v. administration", "setting": "i.v., rat PCA, comparison in words", "result": "many times as effective"}, {"measurement": "activity in rat PCA when given intraperitonially", "setting": "intraperitoneal, result in words", "result": "active"}, {"measurement": "ED50", "setting": "ip, effective dose 50% inhibition, rat PCA, intraperitoneal, read-out: ED50 -PCA (rat) ip.", "result": 0.015, "unit": "mg/kg"}, {"measurement": "activity in rat PCA when given orally", "setting": "oral, result in words", "result": "active"}]}, {"smiles": "O=C(O)c1cc(=O)c2c(OCC(O)COc3cccc4oc(C(=O)O)cc(=O)c34)cccc2o1", "note": "[Intal, Cromoglycate, reference compound]", "values": [{"measurement": "ED50 -PCA (rat) ip.", "setting": "effective dose 50% inhibition, rat PCA, intraperitoneal", "result": "inactive"}, {"measurement": "ED50", "setting": "[1]", "result": "1 to 2", "unit": "mg/kg"}, {"measurement": "ED50 -PCA (rat) po.", "setting": "effective dose 50% inhibition, rat PCA, oral", "result": "inactive"}]}]}
